Reference: ChEMBL document CHEMBL6096732 (J Med Chem, 2025)
Active and inactive are the calls of the source. No cut-off for these calls is given here.

Tests used:
[1] = Tmax in male Sprague-Dawley rat at 2 mg/kg, iv measured after 12 hrs by LC-MS/MS analysis; assay type: ADME, organism-based; details: in vivo
[2] = AUMC (0 to infinity) in male Sprague-Dawley rat at 2 mg/kg, iv measured after 12 hrs by LC-MS/MS analysis; assay type: ADME, organism-based; details: in vivo
[3] = VRT (0 to t) in male Sprague-Dawley rat at 2 mg/kg, iv measured after 12 hrs by LC-MS/MS analysis; assay type: ADME, organism-based; details: in vivo
[4] = Toxicity in male C57BL/6 mouse implanted with mouse B16-F10 cells assessed as histopathological changes in kidney at 50 mg/kg, po administered once daily for 14 days by HandE staining based microscopic analysis; assay type: organism-based; details: in vivo, 336 h, time 14 day
[5] = molecular target: Programmed cell death 1 ligand 1 (Mus musculus) (UniProt Q9EP73); assay: Induction of PD-L1 degradation in mouse B16-F10 cells assessed as decrease in PD-L1 protein level at 5 uM preincubated with MG132 for 4 hrs followed by compound addition and measured after 24 hrs by Western blot analysis; assay type: cell-based
Programmed cell death 1 ligand 1 (Mus musculus), sequence (Q9EP73 whole entry): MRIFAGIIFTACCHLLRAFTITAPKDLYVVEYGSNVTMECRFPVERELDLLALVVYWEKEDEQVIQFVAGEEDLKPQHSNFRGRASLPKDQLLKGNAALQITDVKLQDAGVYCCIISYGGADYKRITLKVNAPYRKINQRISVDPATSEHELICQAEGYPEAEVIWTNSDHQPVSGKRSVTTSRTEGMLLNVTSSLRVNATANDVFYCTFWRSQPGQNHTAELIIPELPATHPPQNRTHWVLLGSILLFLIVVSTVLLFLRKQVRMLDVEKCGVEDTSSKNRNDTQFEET

[6] = test system: 4T1; assay: Downregulation of PARP1 expression in mouse 4T1 cells at 5 uM by DAPI staining based immunofluorescence analysis; assay type: functional, cell-based
[7] = AUMC (0 to infinity) in male Sprague-Dawley rat at 20 mg/kg, po measured after 12 hrs by LC-MS/MS analysis; assay type: ADME, organism-based; details: in vivo
[8] = molecular target: Histone deacetylase 8 (Homo sapiens, UniProt Q9BY41); assay: Inhibition of recombinant HDAC8 (unknown origin) using Boc-Lys(trifluoroacetyl)-AMC as substrate preincubated for 1 hr followed by substrate addition and measured after 2 hrs by fluorescence based micro plate reader analysis
Histone deacetylase 8, sequence (Q9BY41 whole entry): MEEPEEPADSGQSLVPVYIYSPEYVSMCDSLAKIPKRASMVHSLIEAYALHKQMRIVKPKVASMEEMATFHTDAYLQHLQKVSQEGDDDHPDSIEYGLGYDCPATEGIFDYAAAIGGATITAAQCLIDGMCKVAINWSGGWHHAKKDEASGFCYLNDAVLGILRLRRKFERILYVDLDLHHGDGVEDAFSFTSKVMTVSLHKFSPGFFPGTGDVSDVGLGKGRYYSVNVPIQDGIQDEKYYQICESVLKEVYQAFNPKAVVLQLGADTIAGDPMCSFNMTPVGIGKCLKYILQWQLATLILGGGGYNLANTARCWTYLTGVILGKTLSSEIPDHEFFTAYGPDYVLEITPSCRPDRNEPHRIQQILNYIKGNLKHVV

[9] = test system: 4T1; assay: Antitumor activity against mouse 4T1 cells implanted in female BALB/c mouse model assessed as decrease in PAPR1 fluorescence intensity in tumor co-administrated orally with olaparib as once daily dose via gavage for 14 days by DAPI staining based immunofluorescence analysis; assay type: functional, cell-based; details: route po, time 14.0 day
[10] = test system: 4T1; assay: Antitumor activity against mouse 4T1 cells implanted in female BALB/c mouse model assessed as induction of DNA damage by measuring increase in gamma-H2AX expression in tumor co-administrated orally with olaparib as once daily dose via gavage for 14 days by immunohistochemistry analysis; assay type: functional, cell-based; details: route po, time 14.0 day
[11] = test system: 4T1; assay: Effect on acetylated H3K56 expression level in mouse 4T1 cells at 5 to 20 uM incubated for 24 hrs by Western blot analysis; assay type: functional, cell-based; details: dose 5-20 µM
[12] = molecular target: Programmed cell death 1 ligand 1 (Mus musculus, UniProt Q9EP73); assay: (§1) Induction of PD-L1 degradation in mouse B16-F10 cells assessed as decrease in PD-L1 protein level incubated for 24 hrs by Western blot analysis; assay type: cell-based
Programmed cell death 1 ligand 1, sequence (Q9EP73 whole entry): as the sequence (Q9EP73 whole entry) above

[13] = molecular target: Programmed cell death 1 ligand 1 (Mus musculus) (UniProt Q9EP73); assay: as §1; assay type: cell-based
[14] = test system: B16-F10; assay: Effect on acetylated H3K56 expression level in mouse B16-F10 cells at 5 to 20 uM incubated for 24 hrs by Western blot analysis; assay type: functional, cell-based; details: dose 5-20 µM
[15] = Tmax in male Sprague-Dawley rat at 20 mg/kg, po measured after 12 hrs by LC-MS/MS analysis; assay type: ADME, organism-based; details: in vivo
[16] = Toxicity in male C57BL/6 mouse implanted with mouse B16-F10 cells assessed as histopathological changes in liver at 50 mg/kg, po co-administered with NP-19 as once daily dosage via gavage for 14 days by HandE staining based microscopic analysis; assay type: organism-based; details: in vivo, 336 h, time 14 day
[17] = test system: B16-F10; assay: cells; assay type: functional, cell-based; details: Mus musculus, B16-F10, 72 h
Description: Antiproliferative activity against mouse B16-F10 cells assessed as inhibition of cell growth incubated for 72 hrs by MTT assay

[18] = Clearance in male Sprague-Dawley rat at 20 mg/kg, po measured after 12 hrs by LC-MS/MS analysis; assay type: ADME, organism-based; details: in vivo
[19] = test system: 4T1; assay: Antitumor activity against mouse 4T1 cells implanted in female BALB/c mouse model assessed as induction of DNA damage by measuring increase in gamma-H2AX expression in tumor administrated orally as once daily dose via gavage for 14 days by Western blot analysis; assay type: functional, cell-based; details: route po, time 14.0 day
[20] = Retention time of compound by HPLC analysis; assay type: physicochemical
[21] = molecular target: Programmed cell death 1 ligand 1 (Mus musculus) (UniProt Q9EP73); assay: Induction of PD-L1 degradation in mouse B16-F10 cells assessed as decrease in PD-L1 protein level at 5 uM preincubated with bafilomycin A1 for 4 hrs followed by compound addition and measured after 24 hrs by Western blot analysis; assay type: cell-based
[22] = VRT (0 to infinity) in male Sprague-Dawley rat at 2 mg/kg, iv measured after 12 hrs by LC-MS/MS analysis; assay type: ADME, organism-based; details: in vivo
[23] = Clearance in male Sprague-Dawley rat at 2 mg/kg, iv measured after 12 hrs by LC-MS/MS analysis; assay type: ADME, organism-based; details: in vivo
[24] = test system: B16-F10; assay: Inhibition of cell migration in mouse B16-F10 cells incubated for 24 to 48 hrs by crystal violet staining based microscopic analysis; assay type: functional; details: dose 5-20 µM, time 24-48 hrs
[25] = Clast in male Sprague-Dawley rat at 20 mg/kg, po measured after 12 hrs by LC-MS/MS analysis; assay type: ADME, organism-based; details: in vivo, read-out: Clast
[26] = AUMC (0 to t) in male Sprague-Dawley rat at 20 mg/kg, po measured after 12 hrs by LC-MS/MS analysis; assay type: ADME, organism-based; details: in vivo
[27] = Half-life in male Sprague-Dawley rat at 2 mg/kg, iv measured after 12 hrs by LC-MS/MS analysis; assay type: ADME, organism-based; details: in vivo
[28] = Toxicity in male C57BL/6 mouse implanted with mouse B16-F10 cells assessed as histopathological changes in liver at 50 mg/kg, po administered once daily for 14 days by HandE staining based microscopic analysis; assay type: organism-based; details: in vivo, 336 h, time 14 day
[29] = Toxicity in male C57BL/6 mouse implanted with mouse B16-F10 cells assessed as body weight loss at 50 mg/kg, po administered once daily for 14 days; assay type: organism-based; details: in vivo, 336 h, time 14 day
[30] = Half-life in male Sprague-Dawley rat at 20 mg/kg, po measured after 12 hrs by LC-MS/MS analysis; assay type: ADME, organism-based; details: in vivo
[31] = test system: Mus musculus; assay: In vivo induction of PD-L1 degradation in male C57BL/6 mouse model implanted with mouse B16-F10 cells assessed as decrease in PD-L1 protein expression in tumor at 50 mg/kg, po administered once daily via gavage for 14 days by Western blot analysis; assay type: functional, organism-based; details: time 14.0 day
[32] = molecular target: Histone deacetylase 1 (Homo sapiens, UniProt Q13547); details: dose 500.0 nM, time 3.0 hrs
Histone deacetylase 1, sequence (Q13547 whole entry): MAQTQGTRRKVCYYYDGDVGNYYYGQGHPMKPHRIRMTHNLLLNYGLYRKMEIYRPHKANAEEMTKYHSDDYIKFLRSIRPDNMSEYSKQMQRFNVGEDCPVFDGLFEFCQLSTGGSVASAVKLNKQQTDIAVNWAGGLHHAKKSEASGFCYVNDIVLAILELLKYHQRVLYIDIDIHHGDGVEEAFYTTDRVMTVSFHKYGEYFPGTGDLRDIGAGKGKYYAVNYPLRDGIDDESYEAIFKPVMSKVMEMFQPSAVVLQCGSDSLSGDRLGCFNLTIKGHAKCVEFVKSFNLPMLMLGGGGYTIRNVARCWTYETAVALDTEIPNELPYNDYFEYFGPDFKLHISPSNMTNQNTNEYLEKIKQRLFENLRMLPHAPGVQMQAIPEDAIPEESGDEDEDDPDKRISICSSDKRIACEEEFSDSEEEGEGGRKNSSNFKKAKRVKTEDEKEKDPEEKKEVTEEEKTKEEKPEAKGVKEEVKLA

[33] = test system: B16-F10; assay: Upregulation of cathepsin B expression in mouse B16-F10 cells at 5 to 20 uM incubated for 24 hrs by Western blot analysis; assay type: functional, cell-based; details: dose 5-20 µM
[34] = molecular target: Histone deacetylase 9 (Homo sapiens, UniProt Q9UKV0); assay: Inhibition of recombinant HDAC9 (unknown origin) using Boc-Lys(trifluoroacetyl)-AMC as substrate preincubated for 1 hr followed by substrate addition and measured after 2 hrs by fluorescence based micro plate reader analysis
Histone deacetylase 9, sequence (Q9UKV0 whole entry): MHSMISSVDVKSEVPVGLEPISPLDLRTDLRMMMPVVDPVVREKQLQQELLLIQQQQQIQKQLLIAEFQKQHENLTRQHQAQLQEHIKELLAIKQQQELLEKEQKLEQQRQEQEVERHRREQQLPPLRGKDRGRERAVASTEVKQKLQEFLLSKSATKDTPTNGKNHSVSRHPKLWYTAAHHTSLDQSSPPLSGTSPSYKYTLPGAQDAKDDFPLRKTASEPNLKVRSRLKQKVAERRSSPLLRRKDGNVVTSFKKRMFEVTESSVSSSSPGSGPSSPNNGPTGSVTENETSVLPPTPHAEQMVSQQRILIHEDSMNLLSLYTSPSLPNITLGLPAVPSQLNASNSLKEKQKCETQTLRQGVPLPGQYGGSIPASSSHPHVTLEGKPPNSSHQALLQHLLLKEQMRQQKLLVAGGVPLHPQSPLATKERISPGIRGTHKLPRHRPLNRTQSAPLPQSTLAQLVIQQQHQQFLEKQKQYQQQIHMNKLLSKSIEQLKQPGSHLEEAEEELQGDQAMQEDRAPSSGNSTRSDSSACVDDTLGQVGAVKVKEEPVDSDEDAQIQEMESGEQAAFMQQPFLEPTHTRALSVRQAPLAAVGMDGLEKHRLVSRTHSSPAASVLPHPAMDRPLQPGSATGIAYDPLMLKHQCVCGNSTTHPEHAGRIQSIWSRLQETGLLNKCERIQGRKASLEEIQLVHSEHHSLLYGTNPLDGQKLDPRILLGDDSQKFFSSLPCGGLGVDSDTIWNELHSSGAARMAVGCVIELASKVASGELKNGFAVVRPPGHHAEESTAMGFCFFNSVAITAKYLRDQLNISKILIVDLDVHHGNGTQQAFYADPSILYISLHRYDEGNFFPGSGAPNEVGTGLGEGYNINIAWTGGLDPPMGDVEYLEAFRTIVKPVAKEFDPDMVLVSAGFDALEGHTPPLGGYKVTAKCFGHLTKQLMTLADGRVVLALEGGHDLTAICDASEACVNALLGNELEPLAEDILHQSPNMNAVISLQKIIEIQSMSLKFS

[35] = test system: Mus musculus; assay: Immunomodulatory activity in male C57BL/6 mouse model implanted with mouse B16-F10 cells assessed as increase in CD3+ CD4+ T cells in tumor at 50 mg/kg, po co-administered with NP-19 as once daily dosage via gavage for 14 days by flow cytometric analysis (reference value: 3.1 %); assay type: functional; details: time 14 day

With `CCCNNC(=O)c1ccc(Cn2c3ccccc3c3c(-c4ccccn4)nc4ccccc4c32)cc1` the Tmax [1] was 4.98 min, the AUMC [2] was 630.022 hr.hr.ug/L and the “VRT(t)” value [3] was 0.641 hr2. The Activity [4] was “Non-toxic”, the Activity [5] was “Active” and the Activity [6] was “Active”. The AUMC [7] was 39983.874 hr.hr.ug/L, the IC50 [8] was over 10 µM and the Activity [9] was “Active”. For the same molecule, the Activity [10] was “Active”, the Activity [11] was “inactive” and the DC50 [12] was 4.03 µM. For the same molecule, the Activity [13] was “Dose-dependent-effect”, the Activity [14] was “inactive” and the Tmax [15] was 30 min. The Activity [16] was “Non-toxic”, the IC50 [17] was 5.56 µM and the CL/F [18] was 41.1 mL/min/kg. The Activity [19] was “Active”, the Retention_time [20] was 10.16 min and the Activity [21] was “Not active; Compound Degrades Pd-L1 Through Lysosomal Pathway”. The VRT [22] was 0.664 hr2, the clearance [23] was 39.6 mL/min/kg and the inhibition [24] was “Dose-dependent-effect”. For the same molecule, the concentration at 12 h [25] was 106 ng/mL, the AUMCt [26] was 34704.993 hr.hr.ug/L and the half-life [27] was 37.8 min. For the same molecule, the Activity [28] was “Non-toxic”, the Activity [29] was “Non-toxic” and the half-life [30] was 122 min. For the same molecule, the Activity [31] was “Active”, the inhibition [32] was 14% and the Activity [33] was “Active”. The IC50 [34] was over 10 µM and the Activity [35] was 32%.
